Structures can show the parent of a compound that is named as a salt.
Key:
rats periphery = test: Vasodilative activity in rats periphery (constant volume blood perfusion); format: in vivo, Male SD strain rats
Experimental: Male SD strain rats, weighing 350 g to 450 g, were used. They were anesthetized with sodium pentobarbital 60 mg/kg i.p. […] The solution of the test compound was infused into the perfusion blood on the peripheral side with a perfusion pump, and changes in perfusion pressure were measured. The activity of the test compound was determined as the ratio of the relative activity of the test compound against papaverine obtained from the dose-response curves.

[1] = tested on: SHR (Spontaneously Hypertensive Rats); test: Antihypertensive activity in SHR; format: in vivo, Male SHR (Spontaneously Hypertensive Rats); details: no anesthesia
Experimental: Male SHR (14 to 16 weeks old) fasted for more than 16 hours were used. […] When one hour or more passed after the rats woke up out of the ether, they were administered the test compound orally. The blood pressure was measured with the pressure transducer via the catheter inserted into the femoral artery.
The test compound was dissolved in a small quantity of ethanol and diluted with water to be adjusted for administration.
Changes in the mean blood pressure were obtained from the equation mentioned below. The Basic and Clinical Study, vol. 14, p. 4495 (1980) is a useful literature to be referred to for making this kind of experiment. [formula]

anesthetized rats = test: Hypotensive activity by intravenous administration in anesthetized rats (Example 23); format: in vivo, Male Wistar rats; details: for ED20: Rattus norvegicus, iv, anesthetized Wistar rats about 250 g, read-out: ED20 (dose decreasing mean blood pressure by 20%); for Duration T1/2 (half-life of hypotensive action): i.v., dose 10
Experimental: (§1) Male Wistar rats weighing about 250 g were used. They were anesthetized with urethane (500 mg/kg) and α-chloralose (100 mg/kg) intraperitoneal injection.
(§2) The test compound was dissolved in a small quantity of ethanol and the solution, which was then diluted with physiological saline to have a final concentration of ethanol kept at 5% or lower, was intravenously injected through a catheter inserted into the femoral vein.
(§3) The blood pressure was recorded with the pressure transducer via the catheter inserted into the common carotid artery of the rats.
(§4) Hypotensive activity of the test compound was indicated by the dose (ED20 μ/kg) required for decreasing the mean blood pressure by 20% as compared with the mean blood pressure before the administration.
(§5) To determine the duration of the hypotensive action of the test compound, half-life of hypotensive action T^1 /2) was measured.

mean blood pressure = test: Action on mean blood pressure in anesthetized dog; format: in vivo, male beagle dog; details: 10 μg/kg i.v.
Experimental: (§6) A male beagle dog weighing about 10 kg was anesthetized with sodium pentobarbital (35 mg/kg i.v.). The test compound was dissolved in a small quantity of ethanol, diluted with an isotonic sodium chloride solution, and was injected into the right femoral vein.
The mean blood pressure (MBP) was measured with the pressure transwer via the cannula inserted into the right femoral artery of the male beagle dog. The changes in the blood pressure after the administration of the test compound are shown in percentages in Table 5.

anesthetized rat = test: Hypotensive activity by intravenous administration in anesthetized rat (Example 27); format: in vivo, Male Wistar rats; details: for ED20: Rattus norvegicus, iv, anesthetized Wistar rats about 300 g, read-out: ED20 (dose decreasing mean blood pressure by 20%); for Duration T1/2: i.v.
Experimental: as §1, §2, §3, §4, §5
Male Wistar rats weighing about 300 g were used. The measurement of hypotensive activity was conducted according to the same method as Example 23.

[2] = tested on: peripheral blood vessels (femoral artery); test: Action on peripheral blood vessels (femoral blood flow) in anesthetized dog; format: in vivo, male beagle dog; details: 3 μg/kg i.v.
Experimental: as §6
The carotic blood flow (CBF) and the femoral blood flow (FBF) were measured with the electromagnetic blood flowmeter (MFV-1200 made by Japan Photoelectric Co., Ltd.) via probe for measuring the blood flow volume set in the right common carotid artery and the left femoral artery of the male beagle dog respectively.

platelet aggregation = test: In vitro inhibitory activity of platelet aggregation; format: cell-based, male Hartley guinea pigs; details: Cavia porcellus, Platelet; Conc. 100 μM, AA 75 μM
Experimental: The in vitro platelet aggregation inhibiting activities of the compounds of the invention were examined by using guinea pigs. Blood was withdrawn by cardiac puncture from male Hartley guinea pigs weighing […]. A mixture of a 3.8% trisodium citrate solution and the blood in a ratio of 1:9 was centrifuged at a speed of 800 rpm for 10 minutes. The upper layer was separated as platelet-rich plasma (PRP). The lower layer was further centrifuged at a separated as platelet-poor plasma (PPP). The number of platelets was adjusted to 5×10^5 /μl to 6×10^5 /μl by filuting the PRP with PPP. 25 microliters of the test compounds prepared as shown below was added in an amount of 25 microliters of PRP after the adjustment, and the mixture was pre-incubated at 37° C. for 2 minutes, and then 75 μM (final) of AA was added. By using an aggregometer (37° C., 1,100 rpm), changes in transmission were recorded.
The test compound was dissolved in ethanol to a concentration of 10 mg/ml. When its activity was measured, it was used after being diluted with phosphate buffer (pH 7.4). Furthermore, after dilution with the buffer, the test compound was left to stand at 0° C. for 4 hours, and the activity of the test compound was similarly measured.
The rate of inhibition of platelet aggregation was determined from the following equation. [formula]

[3] = Light stability in methanol solution; format: physicochemical
Experimental: 1 mg of compound (156) hydrochloride was dissolved in 100 ml of methanol. The solution was placed in a transparent glass test tube, and after the test tube was tightly stoppered, it was allowed to stand by the window of the laboratory. Part of the solution was taken at regular intervals and subjected to high performance liquid chromatograph to determined the remaining quantity of compound (156) hydrochloride contained in the solution. The same experiment was conducted with nicardipine hydrochloride as the control.

conscious rats = test: Antihypertensive activity by oral administration in conscious rats; format: in vivo, Male Wistar rats; details: 10 mg/kg oral
Experimental: When one hour or more passed after the rats were aroused, they were administered the test compound orally.
The blood pressure in the femoral artery was recorder and changes in the mean blood pressure were obtained from the following equation. [formula]

COC(=O)C1=C(C)NC(C)=C(C(=O)OCCN(C)Cc2ccccc2)C1c1cccc([N+](=O)[O-])c1F (stereo not drawn) [(104) hydrochloride, 2-(N-Benzyl-N-methylamino)ethyl methyl 2,6-dimethyl-4-(2-fluoro-3-nitrophenyl)-1,4-dihydropyridine-3,5-dicarboxylate]
relative vasodilative activity against papaverine (rats periphery; dosage 0.1 μg/kg): 30 times | relative vasodilative activity against papaverine (rats periphery; dosage 1 μg/kg): 50 times

COC(=O)C1=C(C)NC(C)=C(C(=O)OCCN(C)Cc2ccccc2)C1c1cccc(Cl)c1F (stereo not drawn) [(106) hydrochloride, 2-(N-Benzyl-N-methylamino)ethyl methyl 2,6-dimethyl-4-(3-chloro-2-fluorophenyl)-1,4-dihydropyridine-3,5-dicarboxylate]
Changes in MBP ([1]; 10 mg/kg oral, 30 min.): -56 ± 6 mmHg | Changes in MBP ([1]; 10 mg/kg oral, 60 min.): -53 ± 11 mmHg | Changes in MBP ([1]; 10 mg/kg oral, 90 min.): -46 ± 10 mmHg | Changes in MBP ([1]; 10 mg/kg oral, 2 hr.): -47 ± 11 mmHg | Changes in MBP ([1]; 10 mg/kg oral, 3 hr.): -39 ± 10 mmHg | Changes in MBP ([1]; 10 mg/kg oral, 5 hr.): -37 mmHg | Changes in MBP ([1]; 10 mg/kg oral, 7 hr.): -31 ± 7 mmHg

COC(=O)C1=C(C)NC(C)=C(C(=O)OCC(C)(C)CN(C)Cc2ccccc2)C1c1cccc([N+](=O)[O-])c1F (stereo not drawn) [(130) hydrochloride, 3-(N-Benzyl-N-methylamino)-2,2-dimethylpropyl methyl 2,6-dimethyl-4-(2-fluoro-3-nitrophenyl)-1,4-dihydropyridine-3,5-dicarboxylate]
ED20 (anesthetized rats): 0.016 mg/kg | Duration T1/2 (half-life of hypotensive action) (anesthetized rats): > 30 min | Changes in MBP ([1]; 3 mg/kg oral, 30 min.): -67 ± 13 mmHg | Changes in MBP ([1]; 3 mg/kg oral, 60 min.): -62 ± 13 mmHg | Changes in MBP ([1]; 3 mg/kg oral, 90 min.): -60 ± 14 mmHg | Changes in MBP ([1]; 3 mg/kg oral, 2 hr.): -54 ± 11 mmHg | Changes in MBP ([1]; 3 mg/kg oral, 3 hr.): -48 ± 13 mmHg | Changes in MBP ([1]; 3 mg/kg oral, 5 hr.): -40 mmHg | Changes in MBP ([1]; 3 mg/kg oral, 7 hr.): -29 ± 8 mmHg | Changes in MBP (mean blood pressure; 0.5 min.): -7 ± 1% | Changes in MBP (mean blood pressure; 1 min.): -11 ± 1% | Changes in MBP (mean blood pressure; 2 min.): -14 ± 1% | Changes in MBP (mean blood pressure; 5 min.): -16 ± 2% | Changes in MBP (mean blood pressure; 10 min.): -19 ± 3% | Changes in MBP (mean blood pressure; 15 min.): -20 ± 3% | ED20 (anesthetized rat): 0.0147 mg/kg | Duration T1/2 (anesthetized rat; dose 10): 15 min

COC(=O)C1=C(C)NC(C)=C(C(=O)OCC(C)(C)CN(C)Cc2ccccc2)C1c1cccc(Cl)c1F (stereo not drawn) [(156) hydrochloride, 3-(N-Benzyl-N-methylamino)-2,2-dimethylpropyl methyl 2,6-dimethyl-4-(3-chloro-2-fluorophenyl)-1,4-dihydropyridine-3,5-dicarboxylate]
ED20 (anesthetized rats): 0.0149 mg/kg | Duration T1/2 (half-life of hypotensive action) (anesthetized rats): 20 min | Changes in MBP ([1]; 3 mg/kg oral, 30 min.): -41 ± 8 mmHg | Changes in MBP ([1]; 3 mg/kg oral, 60 min.): -39 ± 7 mmHg | Changes in MBP ([1]; 3 mg/kg oral, 90 min.): -35 ± 5 mmHg | Changes in MBP ([1]; 3 mg/kg oral, 2 hr.): -28 ± 6 mmHg | Changes in MBP ([1]; 3 mg/kg oral, 3 hr.): -28 ± 6 mmHg | Changes in MBP ([1]; 3 mg/kg oral, 5 hr.): -18 mmHg | Changes in MBP ([1]; 3 mg/kg oral, 7 hr.): -20 ± 4 mmHg | Changes in FBF ([2]; 0.5 min.): 0 ± 0% | Changes in FBF ([2]; 1 min.): -1 ± 3% | Changes in FBF ([2]; 2 min.): +5 ± 5% | Changes in FBF ([2]; 5 min.): +19 ± 5% | Changes in FBF ([2]; 10 min.): +20 ± 10% | ED20 (anesthetized rat): 0.0245 mg/kg | Duration T1/2 (anesthetized rat; dose 30): 8.5 min | inhibition at 100 µM (platelet aggregation): -1.9 ± 2.5% | light stability compared with nicardipine hydrochloride [3]: better light stability than nicardipine hydrochloride | remaining at 2 h ([3]; light, 2 hr., read-out: Remaining percentage): 100% | remaining at 4 h ([3]; light, 4 hr., read-out: Remaining percentage): 99% | remaining at 6 h ([3]; light, 6 hr., read-out: Remaining percentage): 100%

COC(=O)C1=C(C)NC(C)=C(C(=O)OCC(C)(C)CN(C)Cc2c(Cl)cccc2Cl)C1c1cccc(Cl)c1F (stereo not drawn) [(202) hydrochloride, 3-(N-2,6-Dichlorobenzyl-N-methylamino)-2,2-dimethylpropyl methyl 2,6-dimethyl-4-(3-chloro-2-fluorophenyl)-1,4-dihydropyridine-3,5-dicarboxylate]
Changes in mean blood pressure (conscious rats; after 30 min): -39 mmHg | Changes in mean blood pressure (conscious rats; after 60 min): -40 mmHg | Changes in mean blood pressure (conscious rats; after 90 min): -38 mmHg | Changes in mean blood pressure (conscious rats; after 2 hr): -33 mmHg | Changes in mean blood pressure (conscious rats; after 3 hr): -33 mmHg | Changes in mean blood pressure (conscious rats; after 5 hr): -24 mmHg | Changes in mean blood pressure (conscious rats; after 7 hr): -23 mmHg

COC(=O)C1=C(C)NC(C)=C(C(=O)OCC(C)(C)CN(C)Cc2ccccc2)C1c1cccc([N+](=O)[O-])c1 (stereo not drawn) [(302) hydrochloride, 3-(N-Benzyl-N-methylamino)-2,2-dimethylpropyl methyl 2,6-dimethyl-4-(3-nitrophenyl)-1,4-dihydropyridine-3,5-dicarboxylate]
ED20 (anesthetized rats): 0.0091 mg/kg | Duration T1/2 (half-life of hypotensive action) (anesthetized rats): > 30 min

COC(=O)C1=C(C)NC(C)=C(C(=O)OCC(C)(C)CN(C)C)C1c1cccc(Cl)c1F (stereo not drawn) [reference compound]
ED20 (anesthetized rat): 0.0807 mg/kg | Duration T1/2 (anesthetized rat; dose 100): 4.6 min

COC(=O)C1=C(C)NC(C)=C(C(=O)OCC(C)(C)CN(C)C)C1c1cccc([N+](=O)[O-])c1Cl (stereo not drawn) [reference compound]
ED20 (anesthetized rat): 0.288 mg/kg | Duration T1/2 (anesthetized rat; dose 300): 3.5 min

Reference: patent US4578395A, “Certain aralkylaminoalkyl esters of 1,4 dihydropyridines as antihypertensive” (Teijin Limited, priority 1983, dated 1986)
